Experimental data reported in EP4696693A1, “HEXAHYDRO[1,4]OXAZINO[3,4-C]PYRIDO[2,1-F][1,2,4]TRIAZINE DEUTERATED DERIVATIVE, PHARMACEUTICAL COMPOSITION THEREOF, PREPARATION METHOD THEREFOR, AND ANTI-INFLUENZA USE THEREOF” (Changsha Jingyi Pharmaceutical Technology Co., Ltd, priority 2023, dated 2024).

Legend:
[1] = In vitro cytotoxicity, Cell Counting Kit (CCK-8); format: cell-based, canine; settings: dog; MDCK cells, 48 h incubation, CCK-8, OD450nm; read-out: IC50 (cytotoxic effects on MDCK cells)
Method: The in vitro cytotoxic effects of the test compound (the compound of Formula I) and the positive control drugs (baloxavir marboxil, baloxavir, T-3 compound and T-4 compound) on Madin-Darby canine kidney (MDCK) cells were determined using a Cell Counting Kit (CCK-8). MDCK cells were seeded in 96-well plates and cultured overnight. After different concentrations of the drugs were added, the cells were incubated for 48 h. CCK-8 was then added, and the cells were incubated in the dark for […]. The optical density (OD) at 450 nm (OD450nm) values were measured using a microplate reader, and the half-maximal inhibitory concentration (IC50) of the drugs on the cells was calculated.

[2] = test system: influenza A virus subtype H3N2 strain (A/California/2/2014); experiment: Cytopathic effect (CPE) assay in MDCK cells, influenza A; format: cell-based; settings: for EC50: Influenza A virus, H3N2, MDCK cells, 100 TCID50, CPE assay, CCK-8, read-out: EC50 against the influenza A virus subtype H3N2 strain (A/California/2/2014)
[3] = test system: influenza B virus strain (B/Florida/78/2015); experiment: Cytopathic effect (CPE) assay in MDCK cells, influenza B; format: cell-based; settings: 100 TCID50, CPE assay, CCK-8, read-out: EC50 against the influenza B virus strain (B/Florida/78/2015)
H3N2 influenza A virus = experiment: In vivo pharmacodynamics, influenza A virus infection model (lung index, lung viral load); settings: H3N2-infected BALB/c mice, x ± s, n = 10; for Lung index: 6 mg/kg oral gavage once daily; for PCR viral load: lung tissue, 6 mg/kg
Method: (§1) In this example, the H3N2 influenza A virus and the IBV influenza B virus were used to intranasally infect BALB/c mice to establish an influenza A virus infection model and an influenza B virus infection model. After infection, the compound of Formula I was administered to the mice by oral gavage. Changes in lung index and lung viral load of the mice were observed. Oseltamivir phosphate granules, baloxavir marboxil, T-3 compound and T-4 compound were set as positive controls to evaluate the in vivo efficacy of the compound of Formula I against influenza viruses.
A total of 250 qualified SPF-grade BALB/c mice, weighing 11.9-15.1 g, half male and half female, were randomly divided into 7 groups based on genders and body weights: normal control group, model control group, oseltamivir phosphate granules group (6 mg/kg), baloxavir marboxil group (6 mg/kg), T-3 compound group (6 mg/kg), T-4 compound group (6 mg/kg) and Compound of Formula I group (6 mg/kg). The normal control group, oseltamivir phosphate granules group, baloxavir marboxil group, T-3 compound group (6 mg/kg) and T-4 compound group each included 30 mice, and the model control group and the Compound of Formula I group each included 50 mice. Two hours before the first administration, all mice were lightly anesthetized with ether. Except for the normal control group, all mice were intranasally inoculated with the stock solution of H3N2 influenza A virus (viral titer: 6 log2) at 100 µL per mouse. The normal control group was administrated with an equal volume of phosphate-buffered solution intranasally. Each group of mice was administered the corresponding concentration of the drug solution at 20 mL/kg, once daily for 5 consecutive days. The normal control group and the model control group were administered an equal volume of 0.5% methylcellulose (0.5% MC) by oral gavage. The body weights of the mice in each group were recorded daily. At 24 h and 48 h after administration, 10 mice (half male and half female) were randomly selected from each group and euthanized by cervical dislocation, and their lungs were dissected and weighed to calculate the lung index. The influenza A viral load in the lung tissue of the mice was detected using a real-time quantitative polymerase chain reaction (PCR) method. In the model control group and the Compound of Formula I group, 10 mice were euthanized at 12 h, 24 h, 48 h, 72 h, and 5 days after administration. The left lung was collected to assess the H3N2 influenza A viral load. […]

IBV influenza B virus = experiment: In vivo pharmacodynamics, influenza B virus infection model (lung index, lung viral load); set-up: PCR relative quantification: unit not given here; settings: IBV-infected BALB/c mice, x ± s, n = 10; for Lung index: 6 mg/kg oral gavage once daily; for PCR relative quantification: lung tissue, dose printed 18 mg/kg
Method: as §1
A total of 210 qualified SPF-grade BALB/c mice, weighing 13.0-15.4 g, half male and half female, were randomly divided into 7 groups based on genders and body weights: normal control group, model control group, oseltamivir phosphate granules group (6 mg/kg), baloxavir marboxil group (6 mg/kg), T-3 compound group (6 mg/kg), T-4 compound group (6 mg/kg) and Compound of Formula I group (6 mg/kg), 30 mice per group. Two hours before the first administration, all mice were lightly anesthetized with ether. Except for the normal control group, all mice were intranasally inoculated with the stock solution of IBV influenza B virus (viral titer: 8 log2) at 100 µL per mouse. The normal control group was administrated with an equal volume of phosphate-buffered solution intranasally. Each group of mice was administered the corresponding concentration of the drug solution at 20 mL/kg by oral gavage, once daily for 5 consecutive days. The normal control group and the model control group were administered an equal volume of 0.5% MC. The body weights of the mice in each group were recorded daily. At 24 h and 48 h after administration, 10 mice (half male and half female) were randomly selected from each group and euthanized by cervical dislocation, and their lungs were dissected and weighed to calculate the lung index. The influenza B viral load in the lung tissue of the mice was detected using a relative fluorescence quantitative PCR method. […]

[4] = Pharmacokinetics after oral gavage of MC suspension, plasma LC-MS/MS; set-up: species or system SD rats; settings: SD, rat, in vivo, 0.9 mg/kg
Method: This example investigated the pharmacokinetics profile of the compound of Formula I administered as a methylcellulose (MC) suspension by oral gavage in rats.
The drug concentration of baloxavir was determined using a validated LC-MS/MS analytical method. Plasma samples were precipitated with acetonitrile, and the supernatant was injected for analysis. A chromatographic column, Waters XBridge C8 2.5 µm 2.1×50 mm Column, was used, and a gradient elution was carried out using a mobile phase of 0.1% formic acid in water and acetonitrile (containing 0.1% formic acid), with a flow rate of 0.60 mL/min. Monitoring was carried out using an electrospray ionization (ESI) source in a positive ion mode with a multiple reaction monitoring (MRM) method. The linear range for baloxavir was 0.1000 to 100.0 ng/mL, with a lower limit of quantification of 0.1000 ng/mL; the linear range for baloxavir marboxil was 0.1000 to 5.000 ng/mL, with a lower limit of quantification of 0.1000 ng/mL; the linear range for the compound of Formula I was 0.1000 to 5.000 ng/mL, with a lower limit of quantification of 0.1000 ng/mL; the linear range for the T-3 compound was 0.1000 to 5.000 ng/mL, with a lower limit of quantification of 0.1000 ng/mL; and the linear range for the T-4 compound was 0.1000 to 5.000 ng/mL, with a lower limit of quantification of 0.1000 ng/mL.
This experiment used the marketed drug baloxavir marboxil and the analogous compounds T-3 and T-4 as references to investigate the differences in single-dose pharmacokinetics characteristics between the compound of Formula I and the above compounds. The dose groups were designed as follows: baloxavir marboxil group, with a medium dose (0.9 mg/kg, calculated as baloxavir), T-3 and T-4 compound groups, with a medium dose (0.9 mg/kg), and Compound of Formula I group, with a medium dose (0.9 mg/kg). Blood samples (approximately 0.2 mL) were collected via the orbital plexus before administration (0 h) and at 5 min, 15 min, 30 min, 1 h, 2 h, 4 h, 6 h, 8 h, 12 h, and 24 h after administration. Plasma was separated by centrifugation at 1700 g for 10 min, and plasma drug concentrations were determined by the LC-MS/MS method. Measured concentration values below 80% of the lower limit of quantification of the analyzed subject were considered not detected (counted as zero) or below the limit of quantification (counted as ND); values before the peak concentration Cmax were counted as zero, and values after the peak concentration were counted as ND. Pharmacokinetics parameters were calculated using Phoenix WinNonlin 8.0 software.
The main pharmacokinetics parameter experiment results are as follows: The primary pharmacokinetics parameters after the administration of different doses of a suspension of the compound of Formula I to SD rats by oral gavage are shown in Table 5 below.

| SMILES | IC50 at 48 h [1] [nM] | EC50 [2] [nM] | protection against influenza virus-induced cell damage ([2]; concentration of 250 nM, influenza virus, strain not specified) | EC50 [3] [nM] | Lung index (H3N2 influenza A virus; 24 h after administration) | Lung index (H3N2 influenza A virus; 48 h after administration) | PCR viral load (H3N2 influenza A virus; 24 h after administration) | PCR viral load (H3N2 influenza A virus; 48 h after administration) | Lung index (IBV influenza B virus; 24 h after administration) [mg/g] | Lung index (IBV influenza B virus; 48 h after administration) | PCR relative quantification (IBV influenza B virus; 24 h after administration) | PCR relative quantification (IBV influenza B virus; 48 h after administration) | AUC 0-t [4] | AUC 0-∞ [4] | Cmax [4] | Tmax [4] |
| --- | --- | --- | --- | --- | --- | --- | --- | --- | --- | --- | --- | --- | --- | --- | --- | --- |
| [2H]C([2H])([2H])C([2H])([2H])OC(=O)OCOc1c2n(ccc1=O)N([C@@H]1c3ccccc3SCc3c1ccc(F)c3F)[C@@H]1COCCN1C2=O [Compound of Formula I, [[(12aR)-12-[(11S)-7,8-difluoro-6,11-dihydrodibenzo[b,e]thiepin-11-yl]-6,8-dioxo-3,4,6,8,12,12 a-hexahydro-1H-[1,4]oxazino[3,4-c]pyrido[2,1-f][1,2,4]triazin-7-yl]oxy]methyl (ethyl-d5) carbonate] | 17400 | 5.02 | significant protection | 8.15 | 8.67 ± 0.51^×× mg/g | 9.00 ± 0.57^× mg/g | 1308927 ± 1042821^×× copies | 193017 ± 192655^×× copies | 12.01 ± 1.09 | 9.79 ± 0.90^×× mg/g | 1416.57 ± 1122.12 | 1206.66 ± 1034.87 | 203.1047 ± 21.4237 (10.55%) ng·h/mL | 207.7670 ± 25.0910 (12.08%) ng·h/mL | 31.7780 ± 2.4334 (7.66%) ng/mL | 1.0000 (0.500, 2.000) h |
| COC(=O)OCOc1c2n(ccc1=O)N([C@@H]1c3ccccc3SCc3c1ccc(F)c3F)[C@@H]1COCCN1C2=O [baloxavir marboxil] | 11600 | 13.4 |  | 15.4 | 9.53 ± 0.80 mg/g | 9.11 ± 0.96 mg/g | 1919953 ± 784647^×× copies | 320599 ± 202529 copies | 11.64 ± 1.06 | 11.45 ± 0.66^× mg/g |  |  | 157.8227 ± 56.5111 (35.81%) ng·h/mL | 160.9111 ± 57.8613 (35.96%) ng·h/mL | 23.1900 ± 7.9729 (34.38%) ng/mL | 1.0000 (0.250, 2.000) h |
| O=C1c2c(O)c(=O)ccn2N([C@@H]2c3ccccc3SCc3c2ccc(F)c3F)[C@@H]2COCCN12 [baloxavir] | 10400 | 1.31 |  | 2.06 |  |  |  |  |  |  |  |  |  |  |  |  |
